pIC50: −log10 of the molar value. Read-outs that look alike come from different tables or passages of the source.

In general, pIC50 refers to −log10 of the IC50, conventionally taken in molar units.

This experiment concerns the target T1, CIII2CIV2 (Complex III2IV2, cytochrome bcc-aa3 supercomplex) (Mycolicibacterium smegmatis, UniProt A0R052+I7GD61).
T1 construct: gene MSMEG_4263; CIII2CIV2 in IMVs from strain QcrB-3×FLAG (3×FLAG tag at the C terminus of the QcrB subunit); with other subunits of the CIII2CIV2 supercomplex
The experiment can be described thus: succinate-driven acidification of inverted membrane vesicles (ACMA fluorescence); no inhibition of ATP-driven acidification. The class given is biochemical.

Take `Cc1c(OCC(F)(F)F)ccnc1CSc1nc2ccccc2[nH]1` [LPZS, lansoprazole sulfide]: where the note is “read-out: IC50”, the pIC50 is around 6.07.

For `CCc1nc2ccc(Cl)cn2c1C(=O)NCc1ccc(N2CCC(c3ccc(OC(F)(F)F)cc3)CC2)cc1` [Q203, telacebec], the pIC50 was around 6.85.

These data come from PMC10770618, “A simple assay for inhibitors of mycobacterial oxidative phosphorylation” (The Journal of Biological Chemistry, 2023).
